Test results taken from PMC7867026, “Selina-1,3,7(11)-trien-8-one and Oxidoselina-1,3,7(11)-trien-8-one from Eugenia uniflora Leaf Essential Oil and Their Cytotoxic Effects on Human Cell Lines” (Molecules, 2021).

Columns and labels:
[1] = DPPH free-radical scavenging assay; format: biochemical; conditions: result in words; figure values in mg AAE/100 g not given
Description: (§1) The free-radical scavenging activity of 1 and 2 in relation to the 2,2-diphenyl-1-picrylhydrazyl (DPPH) radical was measured using the colorimetric method described by Brand-Williams (1995), and the results are expressed in mg of ascorbic acid equivalent per 100 g of material (AAE/100 g). To evaluate the capacity of hydrogen atom transfer (HAT) of the isolated compounds, male Wistar rat brain homogenate was used as substrate for the production of thiobarbituric acid reactive substances (TBARS) produced by Fe^2+-induced oxidation undertaken at 37 °C, following the experimental conditions described elsewhere. The inhibition of lipid peroxidation was expressed as % of inhibition. The animal protocol was approved by the Ethics Committee (UEPG, protocol 47/2017).

A549 cancer cells = assay: Intracellular ROS measurement (DCFH-DA fluorescence), A549; format: cell-based, human; conditions: A549, 10, 50 and 100 μM (legend; method says μg/mL), 1 h
Description: (§2) In order to assess the in vitro antioxidant/oxidant potential of 1 and 2, intracellular ROS generation was measured using a fluorescence technique as described by Carmo (2019). Briefly, A549 cancer cells (6 × 10^4/well) and IMR90 normal cells (2 × 10^4/well) were exposed to concentrations of 10, 50, and 100 μg/mL of 1 and 2 compounds, culture medium (negative control), and 15 μmol/L H2O2 (positive control), for 1 h in DCFH-DA solution ([…]), at 37 °C and 5% CO2. Subsequently, cells were washed with PBS and a H2O2 solution (15 μmol/L) added for recording of fluorescence. Intracellular fluorescence intensity of cells was measured at an excitation wavelength of 485 nm and at an emission wavelength of 538 nm. The assays were performed in quadruplicate on three different days.

[2] = MTT cytotoxicity assay, A549; format: cell-based, human; conditions: human, A549 lung adenocarcinoma epithelial cells, A549, 48 h
Description: (§3) The in vitro cytotoxic effect of 1 and 2 compounds were analyzed in relation to A549 (lung adenocarcinoma epithelial cells—BCRJ code: 0033), HepG2 (human hepatoma carcinoma cells—BCRJ code: 0291), and IMR90 (human lung fibroblast—BCRJ code: 0118) cell lines using MTT (3-(4,5-dimethylthiazol-2-yl)-2,5-diphenyl tetrazolium bromide) (Sigma-Aldrich, COD—M5655) assay. All cell lines were maintained in Dulbecco’s Modified Eagle’s Medium/Nutrient Mixture F-12 Ham (Sigma-Aldrich, COD—D8900), with added 10% fetal bovine serum (FBS, Gibco, COD—16000044) and 100 IU penicillin/100 µg streptomycin (Sigma-Aldrich, COD—P4333). The cell lines were grown in a humidified incubator at 37 °C containing 5% CO2. Briefly, the cells were seeded into 96-well plates at a density of 1 × 10^4 cells/well (HepG2 and A549), 5 × 10^3 cells/well (IMR90), 100 μL/well, and after 24 h, the cells were treated with 100 μL of serial concentrations (10–500 μM) of compounds 1 and 2 for 48 h. The stock solution of extracts contained 5% of dimethyl sulfoxide (DMSO) at a final concentration of 0.2% in cell medium for all in vitro assays. The IC50, GI50, and LC50 parameters were performed in accordance with the method described by do Carmo (2018), in which IC50 is the concentration of the agent that inhibits growth by 50%, calculated as (T/C) × 100 = 50, where T = number of cells at time t of treatment; C = control cells at time t of treatment; GI50 is the concentration of the agent that inhibits growth by 50% relative to untreated cells, calculated as ((T − T0)/(C − T0)) × 100 = 50, where T and C are the number of treated and control cells, respectively, at time t of treatment, and T > T0 where T0 is the number of cells at time zero; LC50 is the concentration of the agent that results in a net loss of 50% cells relative to the number at the start of treatment, calculated as ((T − T0)/T0) × 100 = −50, where T < T0. The experiments were conducted in quadruplicate on three different days to assure the reproducibility of the generated data.

[3] = test system: A549 (lung adenocarcinoma epithelial cells); assay: MTT cytotoxicity assay, A549; format: cell-based, human; conditions: Homo sapiens, A549, 48 h; for IC50: 10–500 μM, read-out: IC50 (cell viability); for GI50: read-out: GI50 (antiproliferative effect)
Description: as §3

IMR90 normal cells = assay: Intracellular ROS measurement (DCFH-DA fluorescence), IMR90; format: cell-based, human; conditions: IMR90, 10, 50 and 100 μM (legend; method says μg/mL), 1 h
Description: as §2

[4] = test system: Wistar rat brain homogenate; assay: Inhibition of lipid peroxidation (TBARS, Fe2+-induced oxidation) in rat brain homogenate; format: biochemical; conditions: at 40 mg/L
Description: as §1

[5] = MTT cytotoxicity assay, HepG2; format: cell-based, human; conditions: human, HepG2 hepatoma carcinoma cells, HepG2, 48 h
Description: as §3

[6] = test system: HepG2 (human hepatoma carcinoma cells); assay: MTT cytotoxicity assay, HepG2; format: cell-based; conditions: Homo sapiens, HepG2, 48 h; for IC50: 10–500 μM, read-out: IC50 (cell viability); for GI50: read-out: GI50 (antiproliferative effect)
Description: as §3

[7] = MTT cytotoxicity assay, IMR90; format: cell-based, human; conditions: human, IMR90 lung fibroblasts, IMR90, 48 h, read-out: LC50 (cell death)
Description: as §3

[8] = test system: IMR90 (human lung fibroblast); assay: MTT cytotoxicity assay, IMR90; format: cell-based; conditions: Homo sapiens, IMR-90, IMR90, 48 h; for IC50: 10–500 μM, read-out: IC50 (cell viability); for GI50: read-out: GI50 (antiproliferative effect)
Description: as §3

Question: With `CC1=CC=C[C@]2(C)CC(=O)C(=C(C)C)C[C@H]12` (relative stereo) [Compound 1, selina-1,3,7(11)-trien-8-one] as the compound, how does the “free-radical scavenging activity (DPPH assay)” value [1] read?
Answer: insignificant free-radical scavenging activity

Question: And the “intracellular ROS generation” value (A549 cancer cells)?
Answer: inducing reactive oxygen species (ROS) generation

Question: And the LC50 (concentration causing 50% cell death) at 48 h [2]?
Answer: > 500 µM

Question: What about the IC50 [3] of the same compound?
Answer: > 500 µM

Question: What about the GI50 [3] of the same compound?
Answer: 591 µM

Question: And the “intracellular ROS generation” value (IMR90 normal cells)?
Answer: inducing reactive oxygen species (ROS) generation

Question: And the “inhibition of lipoperoxidation in rat brain homogenate” value [4]?
Answer: did not show inhibitory activity

Question: What about the LC50 (concentration causing 50% cell death) at 48 h [5] of the same compound?
Answer: > 500 µM

Question: And the IC50 [6]?
Answer: > 500 µM

Question: What about the GI50 [6] of the same compound?
Answer: 289 µM

Question: And the CC50 at 48 h [7]?
Answer: > 500 µM

Question: What about the IC50 [8] of the same compound?
Answer: > 500 µM

Question: And the GI50 [8]?
Answer: 185 µM

Question: With `CC1=COC=C[C@]2(C)CC(=O)C(=C(C)C)C[C@H]12` (relative stereo) [Compound 2, oxidoselina-1,3,7(11)-trien-8-one] as the compound, how does the “free-radical scavenging activity (DPPH assay)” value [1] read?
Answer: insignificant free-radical scavenging activity

Question: And the “intracellular ROS generation” value (A549 cancer cells)?
Answer: inducing reactive oxygen species (ROS) generation

Question: What about the IC50 [3] of the same compound?
Answer: > 500 µM

Question: And the GI50 [3]?
Answer: 359 µM

Question: And the “intracellular ROS generation” value (IMR90 normal cells)?
Answer: inducing reactive oxygen species (ROS) generation

Question: And the “inhibition of lipoperoxidation in rat brain homogenate” value [4]?
Answer: did not show inhibitory activity

Question: What about the IC50 [6] of the same compound?
Answer: 525 µM

Question: What about the GI50 [6] of the same compound?
Answer: 97.5 µM

Question: And the CC50 at 48 h [7]?
Answer: > 500 µM

Question: What about the IC50 [8] of the same compound?
Answer: > 500 µM

Question: And the GI50 [8]?
Answer: 14.9 µM
